Assay results reported in ChEMBL document CHEMBL4229324, “Synthesis and antitumor activities of 1,2,3-triazines and their benzo- and heterofused derivatives” (Eur J Med Chem, 2017).
Converted amounts (≈) assume the structure as drawn.

Tests used:
[1] = species on record: Homo sapiens; test: Antiproliferative activity against HMVEC incubated for 4 days by MTT assay; type: functional
[2] = Acute toxicity in white mongrel mouse administered as single intraperitoneal injection; type: organism-based; conditions: in vivo, ip
[3] = system: HT-29; test: Antiproliferative activity against human HT-29 cells assessed as inhibition of cell proliferation incubated for 48 hrs by cell-titer-Glo reagent based assay; type: functional; conditions: HT-29, 48 h
[4] = target: Caspase; test: Activation of caspase cascade in human T47D cells using N-(Ac-DEVD)-N'-ethoxycarbonyl-R110 fluorogenic substrate incubated for 48 hrs by fluorescent plate reader based assay; type: cell-based
[5] = system: MX1; test: Antiproliferative activity against human MX1 cells assessed as inhibition of cell proliferation incubated for 48 hrs by cell-titer-Glo reagent based assay; type: functional; conditions: MX1, 48 h
[6] = system: T47D; test: Antiproliferative activity against human T47D cells assessed as inhibition of cell proliferation incubated for 48 hrs by cell-titer-Glo reagent based assay; type: functional
[7] = system: MDA-MB-435; test: Antiproliferative activity against human MDA-MB-435 cells assessed as inhibition of cell proliferation incubated for 48 hrs by cell-titer-Glo reagent based assay; type: functional; conditions: MDA-MB-435, 48 h
[8] = system: NCI-H1299; test: Antiproliferative activity against human NCI-H1299 cells assessed as inhibition of cell proliferation incubated for 48 hrs by cell-titer-Glo reagent based assay; type: functional; conditions: NCI-H1299, 48 h
[9] = target: Ribosomal protein S6 kinase beta-1 (Homo sapiens, UniProt P23443, T412E); test: Inhibition of N-terminal 6His-tagged human recombinant p70S6K T412E mutant (1 to 421 residues) in Sf21 insect cells using FITC-AHA-AKRRRLSSLRA-OH substrate peptide incubated for 90 mins
[10] = system: MCF7; test: Cytotoxic activity against human MCF7 cells; type: functional, cell-based
[11] = system: MCF7; test: Antiproliferative activity against human MCF7 cells assessed as cell survival at 25 ug/ml relative to untreated control; type: functional; conditions: read-out: Survival
[12] = target: Epidermal growth factor receptor (Homo sapiens, UniProt P00533); test: Inhibition of EGFR (unknown origin)
[13] = target: T1, Tyrosine-protein kinase JAK3 (Homo sapiens, UniProt P52333); test: Inhibition of JAK3 (unknown origin)
T1 sequence (P52333 whole entry): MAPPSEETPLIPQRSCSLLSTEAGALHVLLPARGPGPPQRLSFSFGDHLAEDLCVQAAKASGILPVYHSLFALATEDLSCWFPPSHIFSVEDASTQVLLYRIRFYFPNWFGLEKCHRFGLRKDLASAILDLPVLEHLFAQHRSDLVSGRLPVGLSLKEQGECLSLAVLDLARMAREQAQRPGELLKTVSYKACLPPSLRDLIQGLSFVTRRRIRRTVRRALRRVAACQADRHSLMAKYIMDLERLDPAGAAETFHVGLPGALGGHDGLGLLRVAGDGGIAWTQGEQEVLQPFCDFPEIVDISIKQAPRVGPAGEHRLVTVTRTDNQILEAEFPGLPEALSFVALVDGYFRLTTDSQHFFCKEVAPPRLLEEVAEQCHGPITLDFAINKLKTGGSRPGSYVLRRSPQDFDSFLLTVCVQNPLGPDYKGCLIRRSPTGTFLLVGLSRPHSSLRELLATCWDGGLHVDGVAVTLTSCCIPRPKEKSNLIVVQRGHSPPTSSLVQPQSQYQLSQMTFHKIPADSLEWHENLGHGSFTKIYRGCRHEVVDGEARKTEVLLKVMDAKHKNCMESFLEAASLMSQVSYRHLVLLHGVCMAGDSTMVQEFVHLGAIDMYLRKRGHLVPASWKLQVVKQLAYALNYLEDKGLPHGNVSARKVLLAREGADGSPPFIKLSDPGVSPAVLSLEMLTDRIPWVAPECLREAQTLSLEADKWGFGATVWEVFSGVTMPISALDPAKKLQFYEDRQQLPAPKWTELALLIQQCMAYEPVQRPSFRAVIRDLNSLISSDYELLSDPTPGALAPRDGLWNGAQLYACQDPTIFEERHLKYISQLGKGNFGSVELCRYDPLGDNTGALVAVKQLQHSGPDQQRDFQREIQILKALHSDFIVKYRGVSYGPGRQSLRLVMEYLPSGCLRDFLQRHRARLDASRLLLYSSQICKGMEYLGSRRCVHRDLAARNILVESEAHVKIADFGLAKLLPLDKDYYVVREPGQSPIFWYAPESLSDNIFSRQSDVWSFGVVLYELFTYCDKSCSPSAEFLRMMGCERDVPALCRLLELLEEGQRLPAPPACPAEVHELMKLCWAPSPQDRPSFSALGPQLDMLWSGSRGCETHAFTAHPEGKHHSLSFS

[14] = Inhibition of binding of vascular endothelial growth factor to heparin pre-incubated with VEGF prior to application to plates for 45 mins by ELISA
[15] = Inhibition of binding of beta-FGF to heparin pre-incubated with beta-FGF prior to application to plate for 45 mins by ELISA
[16] = system: B16-F10; test: Antiproliferative activity against mouse B16F10 cells incubated for 4 days by MTT assay; type: functional, cell-based; conditions: B16-F10, 96 h
[17] = system: PC-3; test: Antiproliferative activity against human PC3 cells incubated for 4 days by MTT assay; type: functional, cell-based; conditions: PC-3, 96 h
[18] = system: DU-145; test: Antiproliferative activity against human DU145 cells incubated for 4 days by MTT assay; type: functional, cell-based; conditions: DU-145, 96 h
[19] = system: Lewis lung carcinoma cell line; test: Antiproliferative activity against mouse LL/2 cells incubated for 4 days by MTT assay; type: functional, cell-based; conditions: 96 h

Chain of Ribosomal protein S6 kinase beta-1 (P23443 whole entry T412E, the tested form may be a part): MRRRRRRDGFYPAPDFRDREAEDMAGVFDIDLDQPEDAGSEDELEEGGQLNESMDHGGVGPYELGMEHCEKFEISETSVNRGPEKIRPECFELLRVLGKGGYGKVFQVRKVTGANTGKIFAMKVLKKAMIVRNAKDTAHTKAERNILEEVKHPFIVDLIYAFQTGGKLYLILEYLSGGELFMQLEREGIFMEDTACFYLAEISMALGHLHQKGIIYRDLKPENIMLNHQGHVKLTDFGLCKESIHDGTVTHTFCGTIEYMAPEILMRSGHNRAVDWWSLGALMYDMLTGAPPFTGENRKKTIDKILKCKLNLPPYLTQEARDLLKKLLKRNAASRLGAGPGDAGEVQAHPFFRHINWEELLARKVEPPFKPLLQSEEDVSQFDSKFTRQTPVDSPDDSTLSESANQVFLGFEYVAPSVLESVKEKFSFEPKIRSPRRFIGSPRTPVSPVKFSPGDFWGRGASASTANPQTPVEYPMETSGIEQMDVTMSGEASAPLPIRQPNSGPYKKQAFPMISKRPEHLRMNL
Chain of Epidermal growth factor receptor (P00533 whole entry): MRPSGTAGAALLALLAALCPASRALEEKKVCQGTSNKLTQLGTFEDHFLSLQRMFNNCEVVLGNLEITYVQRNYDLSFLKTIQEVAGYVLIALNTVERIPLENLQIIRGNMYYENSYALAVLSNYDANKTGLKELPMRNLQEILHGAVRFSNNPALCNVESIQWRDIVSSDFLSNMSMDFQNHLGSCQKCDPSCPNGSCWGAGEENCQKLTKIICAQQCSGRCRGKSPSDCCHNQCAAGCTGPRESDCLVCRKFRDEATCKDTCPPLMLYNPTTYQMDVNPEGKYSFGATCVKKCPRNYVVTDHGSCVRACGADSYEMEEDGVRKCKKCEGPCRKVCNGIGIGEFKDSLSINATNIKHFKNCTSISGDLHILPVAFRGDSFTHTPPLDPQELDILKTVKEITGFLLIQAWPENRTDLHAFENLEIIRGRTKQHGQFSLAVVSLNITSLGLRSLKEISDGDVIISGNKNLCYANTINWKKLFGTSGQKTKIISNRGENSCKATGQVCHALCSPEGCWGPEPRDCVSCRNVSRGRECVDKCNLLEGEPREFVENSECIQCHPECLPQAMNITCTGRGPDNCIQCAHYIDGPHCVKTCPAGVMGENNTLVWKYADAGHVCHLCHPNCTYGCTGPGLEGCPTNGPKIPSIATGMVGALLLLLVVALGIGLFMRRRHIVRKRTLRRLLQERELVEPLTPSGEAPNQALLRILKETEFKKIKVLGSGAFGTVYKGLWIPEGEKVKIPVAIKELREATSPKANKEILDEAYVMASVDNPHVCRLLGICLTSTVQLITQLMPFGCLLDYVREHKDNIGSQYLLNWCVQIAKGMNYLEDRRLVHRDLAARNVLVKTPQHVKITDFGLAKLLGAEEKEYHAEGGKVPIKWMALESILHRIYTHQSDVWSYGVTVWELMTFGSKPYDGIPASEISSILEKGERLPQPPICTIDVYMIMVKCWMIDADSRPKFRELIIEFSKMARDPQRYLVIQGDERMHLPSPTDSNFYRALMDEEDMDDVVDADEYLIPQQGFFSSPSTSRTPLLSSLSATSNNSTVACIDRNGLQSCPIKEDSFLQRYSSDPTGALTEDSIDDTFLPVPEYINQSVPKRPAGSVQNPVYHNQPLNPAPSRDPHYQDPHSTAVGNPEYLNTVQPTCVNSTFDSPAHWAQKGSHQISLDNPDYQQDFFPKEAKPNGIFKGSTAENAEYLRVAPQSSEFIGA

IC50 [9] | Structure (SMILES) | GI50 [1] | also measured
– | COc1cc2c(Nc3ccc(F)cc3)nnnc2cc1OCCCCl | 23.1 µM | –
– | CCCCCCNc1nnnc2c1sc1nc(N3CCOCC3)c3c(c12)CC(C)(C)OC3 | – | MTD [2]: 2000 mg/kg
– | COc1cc2c(Nc3ccc(C)cc3)nnnc2cc1OCCCCl | 17.1 µM | –
– | COc1cc2c(Nc3ccc(F)c(C(F)(F)F)c3)nnnc2cc1OCCCCl | 15.2 µM | –
– | COc1ccc(N(C)c2nnnc3ccccc23)cc1 | – | IC50 [3]: 0.007 to 0.05 µM; EC50 [4]: 0.016 µM; IC50 [5]: 0.007 to 0.05 µM; IC50 [6]: 0.007 to 0.05 µM; IC50 [7]: 0.007 to 0.05 µM; IC50 [8]: 0.007 to 0.05 µM
0.501 to 1 µM | NC(=O)c1cccc2c(NCc3cccc(F)c3)nnnc12 | – | –
– | Clc1ccc(Nc2nnnc3ccccc23)cc1 | > 80 µM | –
– | CC1(C)Cc2c(c(N3CCOCC3)nc3sc4c(N5CCNCC5)nnnc4c23)CO1 | – | MTD [2]: 2000 mg/kg
– | CCOc1cc2nnnc(Nc3ccc(Cl)cc3)c2cc1OC | 26.5 µM | –
– | CC1(C)Cc2c(c(N3CCOCC3)nc3sc4c(N(Cc5ccccc5)Cc5ccccc5)nnnc4c23)CO1 | – | MTD [2]: 2000 mg/kg
0.501 to 1 µM | NC(=O)c1cccc2c(NCc3ccccc3)nnnc12 | – | –
> 1 µM | NC(=O)c1cccc2c(NCc3cccnc3)nnnc12 | – | –
– | COc1cc2c(Nc3ccc(Cl)c(Cl)c3)nnnc2cc1OCCCCl | 11 µM | –
> 1 µM | NC(=O)c1cccc2c(NCc3cc(C(F)(F)F)ccn3)nnnc12 | – | –
– | CC1(C)Cc2c(c(N3CCOCC3)nc3sc4c(NN)nnnc4c23)CO1 | – | MTD [2]: 2000 mg/kg
– | O=c1[nH]nnc2c1C1C(=Cc3ccccc31)S2 (stereo not drawn) | – | IC50 [10]: 6 µg/mL (≈ 24.9 µM)
– | CCOc1cc2nnnc(Nc3ccc(C)cc3)c2cc1OC | 42.6 µM | –
– | CCCCCOc1cc2nnnc(Nc3cccc(OC(F)(F)F)c3)c2cc1OC | 42.6 µM | –
– | CCCCCOc1cc2nnnc(Nc3ccc(OC(F)(F)F)cc3)c2cc1OC | 38 µM | –

IC50 [9] | Structure (SMILES) | GI50 [1] | also measured
< 0.025 µM | N#Cc1cc([C@@H](CN2CCC2)Nc2nnnc3c(C(N)=O)cccc23)ccc1Cl | – | –
– | c1coc(CNc2nnnc3c2sc2nc(N4CCOCC4)c4c(c23)CCCC4)c1 | – | MTD [2]: 2000 mg/kg
< 0.025 µM | NC(=O)c1cccc2c(N[C@H](CN3CCC3)c3ccc(Cl)c(C(F)(F)F)c3)nnnc12 | – | –
< 0.025 µM | NC(=O)c1cccc2c(N[C@H](CN3CCC3)c3ccc(F)c(C(F)(F)F)c3)nnnc12 | – | –
– | CC(C)CCNc1nnnc2c1sc1nc(N3CCOCC3)c3c(c12)CCCC3 | – | MTD [2]: 2000 mg/kg
– | COc1cc2c(Nc3cccc(OC(F)(F)F)c3)nnnc2cc1OCCCCl | 24.9 µM | –
– | CC1(C)Cc2c(c(N3CCOCC3)nc3sc4c(Cl)nnnc4c23)CO1 | – | MTD [2]: 2000 mg/kg
– | Oc1ccc(Nc2nnnc3sc4c(c23)CCC4)cc1 | – | viability at 25 µg/mL [11]: 13%; IC50 [12]: 38.7 µM
< 0.025 µM | NC(=O)c1cccc2c(NCc3ccc(Cl)c(C(F)(F)F)c3)nnnc12 | – | –
0.025 to 0.1 µM | NC(=O)c1cccc2c(NCc3ccc(C(F)(F)F)cc3)nnnc12 | – | –
0.025 to 0.1 µM | COc1cc([C@@H](CN(C)C)Nc2nnnc3c(C(N)=O)cccc23)ccc1Cl | – | –
< 0.025 µM | NC(=O)c1cccc2c(NCc3ccc(Cl)c(Cl)c3)nnnc12 | – | –
– | CCN(CC)CCNc1nnnc2c1sc1nc(N3CCOCC3)c3c(c12)CC(C)(C)OC3 | – | MTD [2]: 2000 mg/kg
0.025 to 0.1 µM | CN(C)C[C@@H](Nc1nnnc2c(C(N)=O)cccc12)c1ccc(Cl)c(C#N)c1 | – | –
– | CCCCCOc1cc2nnnc(Nc3ccc(Cl)cc3)c2cc1OC | 25.4 µM | –
< 0.025 µM | CN(C)C[C@@H](Nc1nnnc2c(C(N)=O)cccc12)c1ccc(Cl)c(Cl)c1 | – | –
– | NC(=O)c1c[nH]c2nnnc(O)c12 | – | IC50 [13]: < 10 µM
– | CC(C)(CC(=O)On1nnc2ccccc2c1=O)CN1C(=O)c2cc3oc(-c4ccc(Cl)cc4)cc3n2C1=S | – | IC50 [14]: 0.26 µM; IC50 [15]: 0.16 µM
– | CC1(C)Cc2c(c(N3CCOCC3)nc3sc4c(NNc5ccccc5)nnnc4c23)CO1 | – | MTD [2]: 2000 mg/kg

IC50 [9] | Structure (SMILES) | GI50 [1] | also measured
0.101 to 0.5 µM | NC(=O)c1cccc2c(NCc3cccc(C(F)(F)F)c3)nnnc12 | – | –
– | Clc1nnnc2c1sc1nc(N3CCOCC3)c3c(c12)CCCC3 | – | MTD [2]: 2000 mg/kg
– | Oc1cccc(Nc2nnnc3sc4c(c23)CCC4)c1 | – | viability at 25 µg/mL [11]: 12%; IC50 [12]: 52.1 µM
– | COc1cc2c(Nc3ccc(OC(F)(F)F)cc3)nnnc2cc1OCCCCl | 23.2 µM | –
< 0.025 µM | NC(=O)c1cccc2c(N[C@H](CN3CCC3)c3ccc(Cl)c(Cl)c3)nnnc12 | – | –
– | CCOc1cc2nnnc(Nc3ccc(F)c(Cl)c3)c2cc1OC | 38.8 µM | –
< 0.025 µM | CN(C)C[C@@H](Nc1nnnc2c(C(N)=O)cccc12)c1ccc(Cl)c(C(F)(F)F)c1 | – | –
– | COc1cc2c(Nc3ccc(Cl)cc3)nnnc2cc1OCCCCl | 18.6 µM | –
– | COc1cc2c(Nc3cccc(C(F)(F)F)c3)nnnc2cc1OCCCCl | 21.4 µM | –
– | CC(C)CCNc1nnnc2c1sc1nc(N3CCOCC3)c3c(c12)CC(C)(C)OC3 | – | MTD [2]: 2000 mg/kg
– | c1ccc(NNc2nnnc3c2sc2nc(N4CCOCC4)c4c(c23)CCCC4)cc1 | – | MTD [2]: 2000 mg/kg
– | COc1cc2c(Nc3ccccc3)nnnc2cc1OCCCCl | > 80 µM | –
– | C=CCNc1nnnc2c1sc1nc(N3CCOCC3)c3c(c12)CC(C)(C)OC3 | – | MTD [2]: 2000 mg/kg
> 1 µM | NC(=O)c1cccc2c(NCc3ccccn3)nnnc12 | – | –
– | COc1cc2c(Nc3cc(Cl)cc(Cl)c3)nnnc2cc1OCCCCl | 28.8 µM | –
– | COc1cc2c(Nc3ccc(F)c(Cl)c3)nnnc2cc1OCCCCl | 7.98 µM | IC50 [16]: 3.79 to 6.91 µM; IC50 [17]: 3.79 to 6.91 µM; IC50 [18]: 3.79 to 6.91 µM; IC50 [19]: 3.79 to 6.91 µM
< 0.025 µM | COc1cc([C@@H](CN2CCC2)Nc2nnnc3c(C(N)=O)cccc23)ccc1Cl | – | –
– | NNc1nnnc2c1sc1nc(N3CCOCC3)c3c(c12)CCCC3 | – | MTD [2]: 2000 mg/kg
